Measurements published in patent US20240246942A1, “KINASE INHIBITORS FOR THE TREATMENT OF NEURODEGENERATIVE DISEASES” (priority 2020, published 2024).
Read-outs that look alike come from different tables or passages of the source.

Assays:
Experiment in all cases: biochemical
[1] = target: T1, panel of 374 wild-type kinases (Homo sapiens, UniProt P34947); conditions: read-out: % Enzyme Activity (relative to DMSO controls), GRK5
T1 construct: purchased Reaction Biology Corporation

[2] = target: T2, panel of 374 wild-type kinases (Homo sapiens, UniProt Q16513)
T2 construct: purchased Reaction Biology Corporation

[3] = target: T3, panel of 374 wild-type kinases (Homo sapiens, UniProt P51451); conditions: read-out: % Enzyme Activity (relative to DMSO controls), BLK
T3 construct: purchased Reaction Biology Corporation

[4] = target: T4, panel of 374 wild-type kinases (Homo sapiens, UniProt Q14289); conditions: read-out: % Enzyme Activity (relative to DMSO controls), kinase PYK2
T4 construct: purchased Reaction Biology Corporation

[5] = target: T5, panel of 374 wild-type kinases (Homo sapiens, UniProt Q16584); conditions: read-out: % Enzyme Activity (relative to DMSO controls), MLK3/MAP3K11
T5 construct: purchased Reaction Biology Corporation

[6] = target: T6, panel of 374 wild-type kinases (Homo sapiens, UniProt P57078); conditions: read-out: % Enzyme Activity (relative to DMSO controls), kinase RIPK4
T6 construct: purchased Reaction Biology Corporation
T6 sequence (P57078 1-832): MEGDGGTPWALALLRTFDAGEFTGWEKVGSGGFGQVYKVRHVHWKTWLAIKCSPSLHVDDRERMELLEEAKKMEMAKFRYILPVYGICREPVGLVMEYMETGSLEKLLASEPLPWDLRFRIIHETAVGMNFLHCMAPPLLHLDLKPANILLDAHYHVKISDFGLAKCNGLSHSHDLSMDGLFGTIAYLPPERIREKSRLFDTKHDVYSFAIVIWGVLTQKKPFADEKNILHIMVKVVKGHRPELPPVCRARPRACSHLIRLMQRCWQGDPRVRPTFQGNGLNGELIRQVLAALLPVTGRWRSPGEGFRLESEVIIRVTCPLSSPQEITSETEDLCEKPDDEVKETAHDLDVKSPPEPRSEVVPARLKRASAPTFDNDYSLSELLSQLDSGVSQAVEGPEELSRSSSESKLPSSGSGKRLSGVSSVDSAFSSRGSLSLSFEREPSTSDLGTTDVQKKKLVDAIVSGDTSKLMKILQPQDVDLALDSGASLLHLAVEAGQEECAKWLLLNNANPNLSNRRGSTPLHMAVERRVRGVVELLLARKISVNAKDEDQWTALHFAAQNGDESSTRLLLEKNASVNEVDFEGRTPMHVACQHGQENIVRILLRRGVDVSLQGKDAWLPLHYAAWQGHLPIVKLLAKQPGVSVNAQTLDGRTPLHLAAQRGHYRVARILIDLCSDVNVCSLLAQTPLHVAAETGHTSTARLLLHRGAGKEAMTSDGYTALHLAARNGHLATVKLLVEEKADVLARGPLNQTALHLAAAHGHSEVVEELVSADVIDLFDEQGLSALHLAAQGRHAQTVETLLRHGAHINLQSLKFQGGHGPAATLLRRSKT

[7] = target: T7, panel of 374 wild-type kinases (Homo sapiens, UniProt Q9BUB5); conditions: read-out: % Enzyme Activity (relative to DMSO controls), MNK1
T7 construct: purchased Reaction Biology Corporation

[8] = target: T8, panel of 374 wild-type kinases (Homo sapiens, UniProt P06239); conditions: read-out: % Enzyme Activity (relative to DMSO controls), LCK
T8 construct: purchased Reaction Biology Corporation

[9] = target: T9, panel of 374 wild-type kinases (Homo sapiens, UniProt O43781); conditions: read-out: % Enzyme Activity (relative to DMSO controls), DYRK3
T9 construct: purchased Reaction Biology Corporation
T9 sequence (O43781 1-588): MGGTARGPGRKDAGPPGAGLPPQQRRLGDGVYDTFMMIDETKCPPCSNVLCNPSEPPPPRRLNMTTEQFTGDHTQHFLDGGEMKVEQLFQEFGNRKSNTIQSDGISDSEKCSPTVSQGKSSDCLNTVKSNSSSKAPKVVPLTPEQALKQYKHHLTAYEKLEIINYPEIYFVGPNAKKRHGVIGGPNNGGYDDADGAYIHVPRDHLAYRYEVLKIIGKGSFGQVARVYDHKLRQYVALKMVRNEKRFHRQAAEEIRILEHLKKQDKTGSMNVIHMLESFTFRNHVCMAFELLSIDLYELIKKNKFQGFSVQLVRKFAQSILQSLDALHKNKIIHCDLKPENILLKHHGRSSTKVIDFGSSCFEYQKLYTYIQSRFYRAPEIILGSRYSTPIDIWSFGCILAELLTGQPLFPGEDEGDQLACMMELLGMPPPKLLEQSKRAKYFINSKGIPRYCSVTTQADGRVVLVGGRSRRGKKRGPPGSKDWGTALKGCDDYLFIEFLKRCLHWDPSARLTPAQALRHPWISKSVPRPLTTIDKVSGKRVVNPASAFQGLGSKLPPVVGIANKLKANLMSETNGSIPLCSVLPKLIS

T4 sequence (Q14289 whole entry): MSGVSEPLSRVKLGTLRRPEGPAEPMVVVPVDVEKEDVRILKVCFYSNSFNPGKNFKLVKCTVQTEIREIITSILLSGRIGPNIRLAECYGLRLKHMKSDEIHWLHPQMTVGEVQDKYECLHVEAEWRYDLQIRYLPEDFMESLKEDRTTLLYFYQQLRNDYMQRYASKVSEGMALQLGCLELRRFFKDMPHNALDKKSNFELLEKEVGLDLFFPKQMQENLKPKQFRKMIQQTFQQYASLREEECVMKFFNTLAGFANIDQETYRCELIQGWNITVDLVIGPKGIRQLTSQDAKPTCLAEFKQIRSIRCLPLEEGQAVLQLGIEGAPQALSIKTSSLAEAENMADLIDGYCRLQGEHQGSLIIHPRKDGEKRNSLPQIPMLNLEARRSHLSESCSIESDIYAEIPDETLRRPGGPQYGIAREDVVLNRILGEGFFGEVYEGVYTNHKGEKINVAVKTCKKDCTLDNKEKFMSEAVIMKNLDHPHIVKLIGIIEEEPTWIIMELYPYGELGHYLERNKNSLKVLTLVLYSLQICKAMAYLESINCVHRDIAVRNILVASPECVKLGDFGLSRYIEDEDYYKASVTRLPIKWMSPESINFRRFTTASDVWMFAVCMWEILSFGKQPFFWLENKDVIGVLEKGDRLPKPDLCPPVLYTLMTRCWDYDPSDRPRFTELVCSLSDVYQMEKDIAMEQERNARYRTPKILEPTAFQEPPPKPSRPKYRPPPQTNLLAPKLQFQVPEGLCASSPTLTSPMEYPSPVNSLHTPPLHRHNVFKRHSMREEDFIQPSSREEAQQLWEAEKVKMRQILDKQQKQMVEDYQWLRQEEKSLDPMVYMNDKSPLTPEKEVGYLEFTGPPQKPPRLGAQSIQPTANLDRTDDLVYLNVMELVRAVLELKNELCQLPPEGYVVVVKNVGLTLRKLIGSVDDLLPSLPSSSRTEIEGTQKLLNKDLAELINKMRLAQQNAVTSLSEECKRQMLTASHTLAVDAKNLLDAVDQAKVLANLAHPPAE
T8 sequence (P06239 whole entry): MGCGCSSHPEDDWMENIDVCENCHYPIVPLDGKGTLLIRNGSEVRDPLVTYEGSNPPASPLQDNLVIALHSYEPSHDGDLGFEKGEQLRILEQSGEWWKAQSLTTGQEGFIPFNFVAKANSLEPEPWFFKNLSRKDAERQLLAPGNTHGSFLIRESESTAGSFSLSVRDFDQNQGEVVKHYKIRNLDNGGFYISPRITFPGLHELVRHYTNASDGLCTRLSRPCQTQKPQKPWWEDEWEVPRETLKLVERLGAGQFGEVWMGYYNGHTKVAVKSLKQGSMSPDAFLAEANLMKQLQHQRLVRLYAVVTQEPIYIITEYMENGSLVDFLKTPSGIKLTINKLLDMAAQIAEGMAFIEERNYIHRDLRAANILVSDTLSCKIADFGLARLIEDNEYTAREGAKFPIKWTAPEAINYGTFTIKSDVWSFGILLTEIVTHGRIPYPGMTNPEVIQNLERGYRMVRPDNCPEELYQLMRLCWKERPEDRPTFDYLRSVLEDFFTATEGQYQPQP
T1 sequence (P34947 whole entry): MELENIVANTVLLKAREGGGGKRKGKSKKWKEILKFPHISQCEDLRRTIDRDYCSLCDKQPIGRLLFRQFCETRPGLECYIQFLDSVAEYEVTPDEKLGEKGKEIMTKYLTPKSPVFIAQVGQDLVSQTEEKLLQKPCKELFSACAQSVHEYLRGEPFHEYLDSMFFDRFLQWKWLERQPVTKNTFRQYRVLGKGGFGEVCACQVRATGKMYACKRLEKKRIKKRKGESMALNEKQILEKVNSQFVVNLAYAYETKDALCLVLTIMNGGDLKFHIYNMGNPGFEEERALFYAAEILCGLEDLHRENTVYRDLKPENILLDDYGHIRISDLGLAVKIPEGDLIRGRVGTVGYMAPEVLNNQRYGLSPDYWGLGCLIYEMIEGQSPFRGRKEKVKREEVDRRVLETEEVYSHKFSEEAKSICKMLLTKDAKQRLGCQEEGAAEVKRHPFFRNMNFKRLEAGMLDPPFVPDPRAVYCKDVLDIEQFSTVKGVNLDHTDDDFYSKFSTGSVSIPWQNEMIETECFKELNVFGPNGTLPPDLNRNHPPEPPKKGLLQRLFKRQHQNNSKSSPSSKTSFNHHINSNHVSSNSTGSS
T5 sequence (Q16584 whole entry): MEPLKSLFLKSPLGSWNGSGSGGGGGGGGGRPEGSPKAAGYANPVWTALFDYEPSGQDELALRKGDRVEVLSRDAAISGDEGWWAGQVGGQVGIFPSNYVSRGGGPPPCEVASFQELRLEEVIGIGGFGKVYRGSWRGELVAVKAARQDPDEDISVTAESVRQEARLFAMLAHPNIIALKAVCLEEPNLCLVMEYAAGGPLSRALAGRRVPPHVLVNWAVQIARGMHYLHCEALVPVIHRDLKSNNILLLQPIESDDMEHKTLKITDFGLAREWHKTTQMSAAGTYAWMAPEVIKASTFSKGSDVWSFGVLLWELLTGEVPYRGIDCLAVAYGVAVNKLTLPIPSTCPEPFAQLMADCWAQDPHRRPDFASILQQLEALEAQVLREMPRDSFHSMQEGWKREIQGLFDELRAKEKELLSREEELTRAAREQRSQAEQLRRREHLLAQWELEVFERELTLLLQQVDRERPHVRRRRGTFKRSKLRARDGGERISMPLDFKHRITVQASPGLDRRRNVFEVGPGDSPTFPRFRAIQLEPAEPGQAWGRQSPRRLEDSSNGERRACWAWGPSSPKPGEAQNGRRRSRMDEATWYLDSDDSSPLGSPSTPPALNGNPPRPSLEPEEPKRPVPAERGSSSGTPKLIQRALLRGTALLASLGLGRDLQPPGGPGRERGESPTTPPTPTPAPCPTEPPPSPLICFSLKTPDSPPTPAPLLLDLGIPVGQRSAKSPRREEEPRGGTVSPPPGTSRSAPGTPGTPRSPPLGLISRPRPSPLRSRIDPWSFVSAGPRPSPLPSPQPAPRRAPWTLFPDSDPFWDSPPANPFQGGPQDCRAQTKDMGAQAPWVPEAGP
T2 sequence (Q16513 whole entry): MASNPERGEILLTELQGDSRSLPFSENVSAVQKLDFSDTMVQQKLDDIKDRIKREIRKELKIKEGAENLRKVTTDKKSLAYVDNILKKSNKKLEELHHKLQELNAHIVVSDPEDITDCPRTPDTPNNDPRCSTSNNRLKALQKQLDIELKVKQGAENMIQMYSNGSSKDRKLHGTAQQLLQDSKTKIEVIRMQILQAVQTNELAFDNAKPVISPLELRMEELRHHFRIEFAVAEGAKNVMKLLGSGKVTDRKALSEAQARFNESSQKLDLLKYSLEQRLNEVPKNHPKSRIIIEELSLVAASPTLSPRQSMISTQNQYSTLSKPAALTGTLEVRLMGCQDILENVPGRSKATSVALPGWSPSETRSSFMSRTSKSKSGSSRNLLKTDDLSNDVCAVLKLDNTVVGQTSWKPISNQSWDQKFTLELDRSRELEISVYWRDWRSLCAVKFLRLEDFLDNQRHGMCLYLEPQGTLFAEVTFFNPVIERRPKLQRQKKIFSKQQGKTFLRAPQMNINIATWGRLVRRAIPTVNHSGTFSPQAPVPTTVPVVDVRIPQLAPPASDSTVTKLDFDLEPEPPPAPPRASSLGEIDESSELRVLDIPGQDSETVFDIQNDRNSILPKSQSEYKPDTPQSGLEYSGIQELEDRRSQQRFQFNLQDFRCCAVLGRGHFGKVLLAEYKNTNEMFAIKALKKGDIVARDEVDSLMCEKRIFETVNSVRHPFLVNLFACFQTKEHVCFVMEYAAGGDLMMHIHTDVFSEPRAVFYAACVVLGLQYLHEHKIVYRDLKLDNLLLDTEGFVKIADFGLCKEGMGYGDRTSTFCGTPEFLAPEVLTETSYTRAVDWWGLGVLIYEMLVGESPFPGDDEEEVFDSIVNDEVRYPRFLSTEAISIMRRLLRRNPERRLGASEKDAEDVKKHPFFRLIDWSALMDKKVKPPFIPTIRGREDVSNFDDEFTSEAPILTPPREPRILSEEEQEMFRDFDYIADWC
T3 sequence (P51451 whole entry): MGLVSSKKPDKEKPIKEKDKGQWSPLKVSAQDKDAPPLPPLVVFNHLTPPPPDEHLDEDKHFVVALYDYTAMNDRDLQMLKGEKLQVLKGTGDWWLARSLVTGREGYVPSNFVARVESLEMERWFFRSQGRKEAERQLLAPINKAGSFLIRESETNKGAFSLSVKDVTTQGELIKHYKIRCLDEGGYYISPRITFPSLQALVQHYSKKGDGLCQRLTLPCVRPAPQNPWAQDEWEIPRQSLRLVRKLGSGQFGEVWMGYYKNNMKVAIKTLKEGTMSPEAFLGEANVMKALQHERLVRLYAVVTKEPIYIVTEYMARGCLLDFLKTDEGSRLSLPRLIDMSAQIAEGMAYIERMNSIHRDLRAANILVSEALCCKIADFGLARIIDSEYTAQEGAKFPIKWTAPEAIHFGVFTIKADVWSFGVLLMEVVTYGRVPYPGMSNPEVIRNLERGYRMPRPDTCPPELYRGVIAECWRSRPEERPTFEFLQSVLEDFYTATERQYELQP
T7 sequence (Q9BUB5 whole entry): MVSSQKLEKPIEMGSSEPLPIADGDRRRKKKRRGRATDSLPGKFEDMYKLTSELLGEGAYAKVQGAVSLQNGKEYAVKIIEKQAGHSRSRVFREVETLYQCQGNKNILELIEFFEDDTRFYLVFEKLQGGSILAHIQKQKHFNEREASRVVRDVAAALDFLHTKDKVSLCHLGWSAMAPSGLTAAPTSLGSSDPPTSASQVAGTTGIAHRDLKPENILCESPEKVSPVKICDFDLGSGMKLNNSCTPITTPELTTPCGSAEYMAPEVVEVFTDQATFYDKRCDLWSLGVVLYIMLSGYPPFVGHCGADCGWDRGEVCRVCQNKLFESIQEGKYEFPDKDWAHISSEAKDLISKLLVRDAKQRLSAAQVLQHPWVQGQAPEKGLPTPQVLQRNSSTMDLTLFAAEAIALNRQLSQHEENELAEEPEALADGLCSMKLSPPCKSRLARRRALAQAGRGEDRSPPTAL

SMILES	remaining activity at 5 µM [1] [%]	remaining activity at 5 µM ([2]; read-out: % Enzyme Activity (relative to DMSO controls), kinase PKN2/PRK2) [%]	remaining activity at 5 µM [3] [%]	remaining activity at 5 µM [4] [%]	remaining activity at 5 µM [5] [%]	remaining activity at 5 µM [6] [%]	remaining activity at 5 µM [7] [%]	remaining activity at 5 µM [8] [%]	remaining activity at 5 µM [9] [%]	remaining activity at 5 µM ([2]; kinase PKN2/PRK2, read-out: % Enzyme Activity (relative to DMSO controls)) [%]	remaining activity at 10 µM ([1]; 10 uM) [%]	remaining activity at 10 µM ([2]; read-out: % Enzyme Activity (relative to DMSO controls), kinase PKN2/PRK2, 10 uM) [%]	remaining activity at 10 µM ([3]; 10 uM) [%]	remaining activity at 10 µM ([4]; 10 uM) [%]	remaining activity at 10 µM ([5]; 10 uM) [%]	remaining activity at 10 µM ([6]; 10 uM) [%]	remaining activity at 10 µM ([7]; 10 uM) [%]	remaining activity at 10 µM ([8]; 10 uM) [%]	remaining activity at 10 µM ([9]; 10 uM) [%]
O=C(Nc1cnn(-c2csc(C(=O)NC3COC3)c2)c1)Nc1ccccc1Cl [Compound 17, 4-(4-(3-(2-chlorophenyl)ureido)-1H-pyrazol-1-yl)-N-(oxetan-3-yl)thiophene-2-carboxamide]	98	112	79.2	93.5	93.5	89.2	94.3	99.1	93.3	–	–	–	–	–	–	–	–	–	–
O=C(Nc1cnn(-c2csc(C(=O)NC3COC3)c2)c1)Nc1c(F)cccc1Cl [Compound 25, 4-(4-(3-(2-chloro-6-fluorophenyl)ureido)-1H-pyrazol-1-yl)-N-(oxetan-3-yl)thiophene-2-carboxamide]	102	–	96.1	91	84.7	96.7	103	94.2	99.2	105	–	–	–	–	–	–	–	–	–
Cc1sc(C(=O)NC2COC2)cc1-n1cc(NC(=O)Nc2c(F)cccc2Cl)cn1 [Compound 27, 4-(4-(3-(2-chloro-6-fluorophenyl)ureido)-1H-pyrazol-1-yl)-5-methyl-N-(oxetan-3-yl)thiophene-2-carboxamide]	–	–	–	–	–	–	–	–	–	–	113	87.1	112	104	90.7	103	94.2	46.5	101
